According to ChEMBL document CHEMBL4828750, “Structure-activity relationships of agonists for the orphan G protein-coupled receptor GPR27” (Eur J Med Chem, 2021):
pEC50: −log10 of the molar value.

target: T1, Probable G-protein coupled receptor 27 (Homo sapiens, UniProt Q9NS67); experiment: Agonist activity at human GPR27 expressed in HEK293 cells co-expressing FnLArrb2.GPR27V2LFc assessed as induction of beta-arrestin recruitment incubated for 10 mins measured followed by addition of D-luciferin by firefly-luciferase complementation assay; format: functional, cell-based; conditions: not given
T1 sequence (Q9NS67 whole entry): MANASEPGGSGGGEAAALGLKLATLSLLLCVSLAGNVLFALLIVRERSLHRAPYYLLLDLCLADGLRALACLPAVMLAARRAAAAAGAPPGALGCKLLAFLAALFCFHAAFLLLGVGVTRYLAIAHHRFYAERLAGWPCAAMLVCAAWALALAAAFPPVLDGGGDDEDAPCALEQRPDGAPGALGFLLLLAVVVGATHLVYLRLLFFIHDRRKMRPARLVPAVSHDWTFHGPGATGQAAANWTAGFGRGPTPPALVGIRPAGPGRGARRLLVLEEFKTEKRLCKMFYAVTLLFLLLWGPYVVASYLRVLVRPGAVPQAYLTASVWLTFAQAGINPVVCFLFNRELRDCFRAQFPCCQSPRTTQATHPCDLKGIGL

Compound	pEC50
O=C(Nc1ccc(S(=O)(=O)Nc2ccccn2)cc1)c1ccc(Cl)cc1Cl	5.52
COc1ccc(NS(=O)(=O)c2ccc(NC(=O)c3ccc(Cl)cc3Cl)cc2)cc1	< 4.00
O=C(Cc1ccc(Cl)cc1Cl)Nc1ccc(S(=O)(=O)Nc2ccccc2)cc1	< 4.00
O=C(Nc1ccc(S(=O)(=O)Nc2ccccc2Cl)cc1)c1ccc(Cl)cc1Cl	5.90
O=C(Nc1ccc(S(=O)(=O)Nc2ccccc2)cc1)c1ccc(Br)cc1F	6.32
O=C(Nc1ccc(S(=O)(=O)Nc2ncccn2)cc1)c1ccc(Cl)cc1Cl	< 4.00
CN(c1ccccc1)S(=O)(=O)c1ccc(NC(=O)c2ccc(Cl)cc2Cl)cc1	5.59
O=C(Nc1ccc(S(=O)(=O)Nc2ccccc2)cc1)c1ccc(Cl)cc1Cl	6.34
COc1cc(Br)ccc1C(=O)Nc1ccc(S(=O)(=O)Nc2ccccc2)cc1	5.99
O=C(Nc1ccccc1)c1ccc(NC(=O)c2ccc(Cl)cc2Cl)cc1	< 5.00
O=C(Nc1ccc(S(=O)(=O)NCc2ccccc2)cc1)c1ccc(Cl)cc1Cl	< 4.00
Cc1cc(Br)ccc1C(=O)Nc1ccc(S(=O)(=O)Nc2ccccc2)cc1	6.07
O=C(NS(=O)(=O)c1ccc(NC(=O)c2ccc(Cl)cc2Cl)cc1)c1ccccc1	< 4.00
O=S(=O)(Nc1ccccc1)c1ccc(NS(=O)(=O)c2ccc(Cl)cc2Cl)cc1	< 4.00
O=C(Nc1ccc(S(=O)(=O)Nc2ccccc2)cc1)c1ccc(I)cc1F	5.29
O=C(Nc1ccc(S(=O)(=O)Nc2ccc(Cl)cc2)cc1)c1ccc(Cl)cc1Cl	< 4.00

Compound	pEC50
N#Cc1ccc(C(=O)Nc2ccc(S(=O)(=O)Nc3ccccc3)cc2)c(F)c1	6.64
O=C(Nc1ccc(S(=O)(=O)Nc2ccccc2)cc1)c1ccc(Cl)cc1Br	5.99
Cc1ccccc1NS(=O)(=O)c1ccc(NC(=O)c2ccc(Cl)cc2Cl)cc1	5.91
O=C(Nc1ccc(S(=O)(=O)Nc2ccccc2)cc1)c1ccc(Cl)nc1F	5.64
O=C(Nc1ccc(S(=O)(=O)Nc2ccccc2)cc1)c1ccc(Cl)cc1F	5.40
O=C(Nc1ccc(Cl)cc1Cl)c1ccc(S(=O)(=O)Nc2ccccc2)cc1	< 4.00
O=C(Nc1ccc(S(=O)(=O)Nc2ccccc2)cc1)c1cc(F)c(Cl)cc1F	6.85
O=C(Nc1ccc(S(=O)(=O)Nc2cccc(Cl)c2)cc1)c1ccc(Cl)cc1Cl	6.24
O=C(Nc1ccc(S(=O)(=O)Nc2ccccc2)cc1)c1cc2ccccc2oc1=O	5.11
O=C(Nc1cccc(S(=O)(=O)Nc2ccccc2)c1)c1ccc(Cl)cc1Cl	< 4.00
O=C(Nc1ccc(S(=O)(=O)Nc2ccccc2)cc1)c1ncc(Cl)cc1Cl	5.24
Cc1cc(Cl)ccc1C(=O)Nc1ccc(S(=O)(=O)Nc2ccccc2)cc1	6.04
Cc1ccc(NS(=O)(=O)c2ccc(NC(=O)c3ccc(Cl)cc3Cl)cc2)cc1	< 4.00
O=C(Nc1ccc(S(=O)(=O)Nc2ccccc2)cc1)c1ccc2ccccc2c1	5.07
O=C(Nc1ccc(S(=O)(=O)Nc2ccccc2)cc1)c1ccc(C(F)(F)F)cc1F	6.44

system: HEK293; experiment: Cytotoxicity against human HEK293 cells expressing FnLArrb2.GPR27V2LFc up to 33.3 uM incubated for 10 mins by MTT assay; format: cell-based; conditions: hek293, 10 min

Compound	Activity
O=C(Nc1ccc(S(=O)(=O)Nc2ccccc2)cc1)c1ccc(Cl)cc1Cl	Non-Toxic
Cc1cc(Br)ccc1C(=O)Nc1ccc(S(=O)(=O)Nc2ccccc2)cc1	Non-Toxic
Cc1cc(Cl)ccc1C(=O)Nc1ccc(S(=O)(=O)Nc2ccccc2)cc1	Non-Toxic
O=C(Nc1ccc(S(=O)(=O)Nc2ccccc2)cc1)c1ccc(C(F)(F)F)cc1F	Non-Toxic

target: T1, Probable G-protein coupled receptor 27; experiment: Agonist activity at human GPR27 expressed in HEK293 cells assessed as induction of beta-arrestin recruitment pretreated with substrate for 45 mins followed by compound addition and measured for 40 mins by NanoLuc luciferase complementation assay; format: functional, cell-based; conditions: not given

Compound	pEC50
O=C(Nc1ccc(S(=O)(=O)Nc2ccccc2)cc1)c1ccc(Cl)cc1Cl	6.04
O=C(Nc1ccc(S(=O)(=O)Nc2nccs2)cc1)c1ccc(Cl)cc1Cl	5.89
